# Results from publication PMC8086025, “A benzopyran with antiarrhythmic activity is an inhibitor of Kir3.1-containing potassium channels” (The Journal of Biological Chemistry, 2021).
# “And” between values parts separate entries of the source, which are not always exact repeats. Equal values may be shown once.
# Experiments:
# [1] = Plasma protein binding, rat; type: in vitro ADME; details: read-out: Rat Plasma Protein Binding (PPB) (converted)
# [2] = molecular target: T1, Non-steroid nuclear receptors PPARγ (Homo sapiens, UniProt P37231); assay: Radioligand binding, [3H]rosiglitazone; details: read-out: % Specific Binding at 10 µM
# T1 construct: purchased; host or cells: E. coli
# T1 sequence (P37231 whole entry): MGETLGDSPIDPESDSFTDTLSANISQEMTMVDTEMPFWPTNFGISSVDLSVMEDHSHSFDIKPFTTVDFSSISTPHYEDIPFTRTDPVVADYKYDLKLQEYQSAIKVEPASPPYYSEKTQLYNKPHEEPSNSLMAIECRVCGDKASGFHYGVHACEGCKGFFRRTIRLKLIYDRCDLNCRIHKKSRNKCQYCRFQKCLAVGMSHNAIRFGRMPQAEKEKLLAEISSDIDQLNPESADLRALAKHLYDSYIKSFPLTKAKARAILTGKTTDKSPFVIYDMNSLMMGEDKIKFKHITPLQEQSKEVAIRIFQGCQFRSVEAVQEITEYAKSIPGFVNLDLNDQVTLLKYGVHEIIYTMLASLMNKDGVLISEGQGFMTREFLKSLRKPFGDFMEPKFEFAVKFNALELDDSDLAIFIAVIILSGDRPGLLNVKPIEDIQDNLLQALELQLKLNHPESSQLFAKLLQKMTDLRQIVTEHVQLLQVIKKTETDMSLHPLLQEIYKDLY
# sigma (non-selective) = assay: Radioligand binding, [3H]DTG, Jurkat cells (endogenous); details: listed as Benzopyran-G1
# Kir3.1/4 channel = molecular target: T2, Kir3.1/4 channel (Homo sapiens, UniProt P48544+P48549); assay: Whole-cell patch clamp, HEK293T cells, Kir3.1/4; type: cell-based; design: expressed in transfected cells; details: whole-cell patch-clamp HEK-293 cells; read-out: IC50, inhibition of Kir3.1/4
# T2 sequence (P48549 1-501): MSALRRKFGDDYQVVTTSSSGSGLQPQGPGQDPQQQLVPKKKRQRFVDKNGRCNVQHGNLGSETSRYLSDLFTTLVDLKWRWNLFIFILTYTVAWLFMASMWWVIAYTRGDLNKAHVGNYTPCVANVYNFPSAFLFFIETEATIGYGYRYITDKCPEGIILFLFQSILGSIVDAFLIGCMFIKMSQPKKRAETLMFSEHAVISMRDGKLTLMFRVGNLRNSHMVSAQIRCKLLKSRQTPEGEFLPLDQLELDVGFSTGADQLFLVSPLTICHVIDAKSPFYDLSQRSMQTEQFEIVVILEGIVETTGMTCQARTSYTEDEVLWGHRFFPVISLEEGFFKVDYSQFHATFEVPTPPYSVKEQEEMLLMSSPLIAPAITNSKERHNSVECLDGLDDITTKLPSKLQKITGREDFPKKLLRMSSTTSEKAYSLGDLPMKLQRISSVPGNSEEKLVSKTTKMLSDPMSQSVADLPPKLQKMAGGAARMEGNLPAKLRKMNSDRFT
# T2 sequence (P48544 1-419): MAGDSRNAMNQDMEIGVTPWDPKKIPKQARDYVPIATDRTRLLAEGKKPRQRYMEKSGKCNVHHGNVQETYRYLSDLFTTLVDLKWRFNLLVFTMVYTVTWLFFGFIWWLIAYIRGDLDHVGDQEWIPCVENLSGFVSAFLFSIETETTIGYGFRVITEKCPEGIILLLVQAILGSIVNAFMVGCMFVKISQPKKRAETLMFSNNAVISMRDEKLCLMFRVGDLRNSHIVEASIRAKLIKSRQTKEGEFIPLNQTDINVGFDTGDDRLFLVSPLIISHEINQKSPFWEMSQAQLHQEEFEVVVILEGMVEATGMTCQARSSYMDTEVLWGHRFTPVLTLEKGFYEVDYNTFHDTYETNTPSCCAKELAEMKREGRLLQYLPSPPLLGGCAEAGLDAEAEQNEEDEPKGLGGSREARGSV
# Method: For the experiments shown in Figure 1, G and H, whole-cell currents were recorded with an Axopatch 200B amplifier and pCLAMP software (Molecular Devices). HEK293T cells were transiently transfected with 1 μg Kir3.1 together with 1 μg Kir3.2 or 1 μg Kir3.4 DNA, using polyethylenimine (PEI). The cells were maintained in DMEM supplemented with 10% Fetal Bovine Serum and 1% Penicillin/Streptomycin at 37 °C in a 5% CO2 humidified atmosphere and were studied 24 to 48 h after transfection. HEK293T cells were bathed in Low K^+ (LK) solution (135 mM NaCl, 5 mM KCl, 1.2 mM MgCl2, 1.5 mM CaCl2, 8 mM Glucose, 10 mM HEPES with pH 7.4). High K^+ (HK) solution (5 mM NaCl, 135 mM KCl, 1.2 mM MgCl2, 1.5 mM CaCl2, 8 mM Glucose, 10 mM HEPES with pH 7.4) was perfused to establish basal currents. BP-G1 in HK solution was perfused sequentially in a concentration response manner prior to applying 5 mM BaCl2 in HK to identify remaining barium-insensitive leak currents and subtract them from the current records. […] Cells used in the experiments were selected based on eGFP fluorescence. A ramp protocol from −80 mV to +80 mV was used and currents were recorded at −80 mV in the whole-cell mode (using the Strathclyde Electrophysiology Software from the University of Strathclyde, Glasgow). The patch-clamp data were analyzed offline in pClamp (Molecular Devices) and OriginLab software. […]
smiles,measurement,setting,value
"Cc1cc(CO)nc2cc3c(cc12)OC(C)(C)[C@H](O)[C@H]3NCCc1ccccc1 [BP-G1, (3R,4S)-7-(hydroxymethyl)-2,2,9-trimethyl-4-(2-phenylethylamino)-3,4-dihydropyrano[2,3-g]quinolin-3-ol]",fraction unbound,[1],0.11
same,inhibition at 10 µM,[2],< 50%
same,% Specific Binding at 10 µM,sigma (non-selective),40.267% and < 50%
same,IC50,Kir3.1/4 channel,10 to 30 nM and 10.5 nM
